Results from patent US12312346B2, “Pyridopyrimidine compounds and methods of their use” (Tufts Medical Center, Inc., priority 2018, dated 2025).

Columns and labels:
[1] = system: human leukemia cell line PEER (with WT Notch); experiment: Cell cycle (PI staining, S-G2-M cells), PEER; type: cell-based
Procedure: FIG. 3A Representative cell cycle profiles of human leukemia cell line PEER (with WT Notch) treated with a vehicle (V) (for palbociclib (PD) or compound GD), PD (0.5 μM), or compound GD at 0.05, 0.5, and 5 μM for 6 days.
FIG. 3B is a histogram summarizing the cell cycle distribution of the PEER cell line in FIG. 3A. Data shown are mean±S.D. (n=6); *P<0.05 vs its vehicle controls, t-test.
FIG. 3C is a chart showing the percentage of S-G2-M cells in FIG. 3B. […]
(§1) Table 2: Experimental Procedures: sensitivity to CDK6 kinase activity inhibition was tested by incubating different cell lines in the presence of CDK6 inhibitor GD007/PBS for either 24 hours for detecting the status of pRB-780 phosphorylation, or 5 days for determining the effect of GD007 on cell proliferation. (1) By immunoblotting (WB), we will detect phospho-pRB-S^780, one of the substrates of CDK6 kinase; (2) By using FACS analysis, we will stain treated cells with Propidium Iodide (PI), a commonly used fluorescent intercalator, to measure the subpopulation of cell cycle to reveal any impact of CDK6 inhibition on cell proliferation; (3) cell numbers will be counted using hemocytometer.

Breast Cancer: MCF-7 = experiment: PI staining and pRB-780 immunoblot, MCF-7; type: cell-based; conditions: PI staining and WB: P-RB-780
Procedure: as §1

mouse WT-MEFs = experiment: Cell cycle and cell number, WT-MEFs; type: cell-based
Procedure: FIG. 6A is a series of charts showing representative cell cycle profiles of mouse WT-MEFs treated with a vehicle (V), PD (0.5 μM), LEE (10 μM), or compound GD at 1, 5, and 10 μM for 6 days.
FIG. 6B is a histogram summarizing the cell cycle distribution in FIG. 6A. Data shown are mean±S.D. (n=6); *P<0.05 vs vehicle control, t-test.
FIG. 6C is a chart showing the percentage of S-G2-M cells in FIG. 6B.
FIG. 6D is a bar graph summarizing the cell number of WT-MEFs treated with PD (0.5 μM), LEE (10 μM), or compound GD at varying doses for 6 days. Data shown are mean±S.D. (n=6); *P<0.05 vs vehicle control, t-test.
(§2) HCl salt of 6-acetyl-5-methyl-2-((4-(piperazin-1-ylmethyl)thiazol-2-yl)amino)pyrido[2,3-d]pyrimidin-7(8H)-one (Compound GD) prepared in Example 1 was examined for its inhibitory activity in cancer cell lines and WT and CDK6^−/− mouse embryonic fibroblasts (MEFs) and stromal vascular fractions (SVFs). MEFs and SVFs are enriched with mesenchymal stem cells (MSC) and pre-adipocytes which can differentiate into a variety of cell types, including adipocytes.

CDK6^−/− SVFs (KO-SVFs) = experiment: Cell number, KO-SVFs; type: cell-based, mouse; conditions: 6 days; GD 0.1-10 μM
Procedure: FIG. 7B is a bar graph showing the cell numbers of KO-SVFs treated with LEE (10 μM) or compound GD at 0.1, 0.5, 1.0, 5.0, and 10 μM for 6 days. Data shown are mean±S.D. (n=6); *P<0.05 vs its vehicle control, t-test.
as §2

## CC(=O)c1c(C)c2cnc(Nc3nc(CN4CCNCC4)cs3)nc2[nH]c1=O [Compound GD, 6-acetyl-5-methyl-2-((4-(piperazin-1-ylmethyl)thiazol-2-yl)amino)pyrido[2,3-d]pyrimidin-7(8H)-one]
[1]; Homo sapiens, 144 h, PEER, 6 days, read-out: IC50 (percentage of S-G2-M cells, growth inhibition)
  IC50: ~1.3 µM
[1]; Leukemic cells: PEER, PI Staining, and cell number counting
  Compound GD Efficacy: Efficacious
Breast Cancer: MCF-7
  Compound GD Efficacy: No
Mouse WT-MEFs; 144 h, mouse WT-MEF, 6 days, read-out: IC50 (proliferation, percentage of S-G2-M cells)
  IC50: ~1.2 µM
Mouse WT-MEFs; WT-MEFs, FIG. 6B, GD 10 μM vs PD 0.5 μM
  fraction of dead cells (effect on cell viability) relative to PD: smaller
CDK6^−/− SVFs (KO-SVFs)
  proliferation of CDK6−/− SVFs: little effect
